From US20030180893A1, “Biotransformation of biologically active compounds made of various classes of chemical substance by means of laccase and manganese peroxidase enzymes” (priority 2000, published 2003)

What was measured:
[1] = tested on: S. aureus strain ATCC 6538; experiment: Agar diffusion test according to Burkhardt against S. aureus ATCC 6538; format: cell-based
Experimental: (§1) Methods: An agar diffusion test according to Burkhardt was performed (Burkhardt, F. (Ed.): Mikrobiologische Diagnostik, Georg-Thieme-Verlag Stuttgart, N.Y., 1992, p. 724). The test substances are applied to Sensi-Disc test plates (Becton Dickinson Microbiology Systems, Cockeysville, USA) in graduated concentrations. For testing, Mueller-Hinton II agar was employed in Stacker Petri dishes (Becton Dickinson Microbiology Systems, Cockeysville, USA). S. aureus strain ATCC 6538 was selected as a test strain. The seeding rate of this test strain was selected in such a way that densely arranged, nut non-confluent individual colonies developed after from 16 to 20 h of incubation. After drying the inoculated nutrient substrates, a maximum of 6 test plates is placed onto the agar surface with slight pressing. After 18+2 h of incubation at 36° C., the inhibition halos are measured. For internal quality control, the method was checked with S. aureus ATCC 25923.

[2] = tested on: multiresistant S. aureus reference strain “Norddeutscher Stamm”; experiment: Agar diffusion test according to Burkhardt against multiresistant S. aureus “Norddeutscher Stamm”; format: cell-based; conditions: for Inhibition halo: S. aureus “Norddeutscher Stamm”; for Size of inhibition halo: starting materials, S. aureus “Nord. Stamm”
Experimental: as §1
Methods: The examination was effected by an agar diffusion test according to the method described in Example 13. As a test germ, the multiresistant S. aureus reference strain “Norddeutscher Stamm” (Smith Kline Beecham) was employed.

[3] = Antimicrobial activity in the preparation examples; conditions: result line of the preparation example; no test germ named
[4] = tested on: multiresistant coagulase-negative S. epidermidis strain 99847; experiment: Agar diffusion test according to Burkhardt against multiresistant S. epidermidis; format: cell-based
Experimental: as §1
Methods: The examination was effected by an agar diffusion test according to the method described in Example 13. As a test germ, the multiresistant coagulase-negative S. epidermidis strain 99847 isolated from patient material was employed.

Row | Compound | Inhibition halo ([1]; 10 μg per test plate) [mm] | Inhibition halo ([1]; 50 μg per test plate) [mm] | Inhibition halo ([1]; 125 μg per test plate) [mm] | Inhibition halo ([1]; 250 μg per test plate) [mm] | Inhibition halo ([2]; 50 μg) [mm] | Inhibition halo ([2]; 125 μg) [mm] | Inhibition halo ([2]; 250 μg) [mm] | Antimicrobial activity of the coupling product (in words) [3] | Inhibition halo ([4]; 125 μg) [mm] | Inhibition halo ([4]; 250 μg) [mm] | Inhibition halo ([4]; 50 μg) [mm] | Antimicrobial activity (in words) ([1]; summary of Table 1) | Inhibition halo ([2]; 10 μg) [mm] | Size of inhibition halo ([4]; starting materials, 0.25 mg/disc) [mm] | Size of inhibition halo ([2]; 0.05 mg/disc) [mm] | Size of inhibition halo ([2]; 0.25 mg/disc) [mm]
1 | CC1(C)SC2C(Nc3cc(O)c(C(=O)NCCO)cc3O)C(=O)N2C1C(=O)O (stereo not shown) [Example 1] | 12 | 18 | 22 | 24 | 16 | 18 | 20 | antimicrobially active | – | – | – | – | – | – | – | –
2 | CC1(C)SC2C(NC(=O)C(Nc3cc(O)c(C(=O)NCCO)cc3O)c3ccccc3)C(=O)N2C1C(=O)O (stereo not shown) [Example 5] | – | – | – | – | – | – | – | antimicrobially active | – | – | – | – | – | – | – | –
3 | CC1=C(C(=O)O)N2C(=O)C(Nc3cc(O)c(C(=O)NCCO)cc3O)C2SC1 (stereo not shown) [Example 3] | – | 18 | 22 | 24 | 20 | 22 | 24 | antimicrobially active | 24 | 20 | – | – | – | – | – | –
4 | CC1(C)SC2C(NC(=O)C(Nc3c(O)ccc(O)c3C(=O)NCCO)c3ccc(O)cc3)C(=O)N2C1C(=O)O (stereo not shown) [Example 4] | >30 | >30 | >30 | >30 | 18 | 22 | 24 | antimicrobially active | 28 | 30 | 18 | highest antimicrobial activity | 10 | – | – | –
5 | O=C(NCCO)c1cc(O)ccc1O [2,5-Dihydroxy-N-(2-hydroxyethyl)benzamide, reference compound] | – | – | – | – | – | – | – | – | – | – | – | – | – | 22 | 14 | 22
